Assay results from the NIST ThermoML archive (doi:10.1016/j.tca.2006.05.019).
± gives the expanded uncertainty stated by the source.

Conditions: 101.33 kPa, Crystal, Vacuum adiabatic calorimetry

O=P([O-])([O-])[O-].[Lu+3] [lutetium phosphate]
Conditions | molar entropy [J/K/mol]
6 K | 0.012 ± 0.015
8 K | 0.0284 ± 0.015
10 K | 0.0553 ± 0.016
12 K | 0.095 ± 0.016
14 K | 0.152 ± 0.017
16 K | 0.226 ± 0.017
18 K | 0.322 ± 0.018
20 K | 0.441 ± 0.019
25 K | 0.858 ± 0.021
30 K | 1.47 ± 0.06
35 K | 2.28 ± 0.07
40 K | 3.29 ± 0.07
45 K | 4.48 ± 0.07
50 K | 5.82 ± 0.08
55 K | 7.3 ± 0.08
60 K | 8.89 ± 0.09
65 K | 10.58 ± 0.09
70 K | 12.33 ± 0.1
75 K | 14.15 ± 0.1
80 K | 16.02 ± 0.11
85 K | 17.93 ± 0.11
90 K | 19.88 ± 0.33
95 K | 21.85 ± 0.33
100 K | 23.84 ± 0.34
110 K | 27.89 ± 0.34
120 K | 31.97 ± 0.35
130 K | 36.07 ± 0.35
140 K | 40.18 ± 0.36
150 K | 44.27 ± 0.37
160 K | 48.34 ± 0.37
170 K | 52.38 ± 0.38
180 K | 56.34 ± 0.38
190 K | 60.33 ± 0.39
200 K | 64.24 ± 0.4
210 K | 68.09 ± 0.4
220 K | 71.89 ± 0.41
230 K | 75.64 ± 0.41
240 K | 79.34 ± 0.42
250 K | 82.98 ± 0.42
260 K | 86.56 ± 0.43
270 K | 90.09 ± 0.44
280 K | 93.57 ± 0.44
290 K | 96.99 ± 0.45
300 K | 100.4 ± 0.5
310 K | 103.7 ± 0.5
320 K | 106.9 ± 0.5
